The values that follow come from patent US20240148821A1, “PHARMACEUTICAL USE OF CYCLIC PEPTIDE COMPOUND” (CHUGAI SEIYAKU KABUSHIKI KAISHA, priority 2021, published 2024).

Numbered stars: 1 amine (or outer) side, 2 acyl side, 3 side chain; on linkers, the order of the positions; unused ones are H or OH. Bridge positions count the residues as written; N and C are the ends. Square brackets hold non-standard residues; d marks the D form. Peptide text beside a SMILES is read from it. * marks the point of attachment. hPhe(3,5-F2-4-CF3) = N[C@@H](CCc1cc(F)c(C(F)(F)F)c(F)c1)C(=O)O; hPhe(3-Cl-4-CF3) = N[C@@H](CCc1ccc(C(F)(F)F)c(Cl)c1)C(=O)O; NMePhe(4-CF3) = CN[C@@H](Cc1ccc(C(F)(F)F)cc1)C(=O)O; hPhe(4-CF3) = N[C@@H](CCc1ccc(C(F)(F)F)cc1)C(=O)O; NMePhe(4-Cl) = CN[C@@H](Cc1ccc(Cl)cc1)C(=O)O; X41 = CN([C@@H](CC=C1CCOCC1)C(=O)[*:2])[*:1]; NEtPhe(2-Cl) = CCN[C@@H](Cc1ccccc1Cl)C(=O)O; NMePhe(4-Me) = CN[C@@H](Cc1ccc(C)cc1)C(=O)O; NMePhe(3-F) = CN[C@@H](Cc1cccc(F)c1)C(=O)O; NMedβ3hAla = C[C@H](CC(=O)[*:2])N(C)[*:1]; X42 = CC(C)C[C@H](CC(=O)[*:2])N(C)[*:1]; NMeGly(cPent) = CN[C@H](C(=O)O)C1CCCC1; Pro(4,4-F2) = O=C(O)[C@@H]1CC(F)(F)CN1; NMeCha = CN[C@@H](CC1CCCCC1)C(=O)O; NMeChg = CN[C@H](C(=O)O)C1CCCCC1; NMeI = CC[C@H](C)[C@H](NC)C(=O)O; NMeD = CN[C@@H](CC(=O)O)C(=O)O; NMeL = CN[C@@H](CC(C)C)C(=O)O; NMeV = CN[C@H](C(=O)O)C(C)C; d(β3hA) = C[C@@H](N)CC(=O)O; NMeS = CN[C@@H](CO)C(=O)O; NAllylGly = C=CCNCC(=O)O; NMeA = CN[C@@H](C)C(=O)O; NMeAib = CNC(C)(C)C(=O)O; Piperidide = C1CCN(*)CC1; dNMeA = CN[C@H](C)C(=O)O; Ac5c = NC1(C(=O)O)CCCC1; Aze = O=C(O)[C@@H]1CCN1; Ac4c = NC1(C(=O)O)CCC1; CH2CMe2OH = CC(C)(O)C*; NBuGly = CCCCNCC(=O)O; Aib = CC(C)(N)C(=O)O; Isopentyl = CC(C)CC*; Sar = CNCC(=O)O

The experiment addresses protein-protein interaction between Kras and SOS1 (biotin-tagged human Kras loaded with GDP, His-tagged human SOS1) (Homo sapiens (Human), UniProt P01116, G12D). As to the kind of experiment: Protein-protein interaction inhibition between Kras and SOS1 (KrasG12D-SOS PPI) using AlphaScreen.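 Further: kras produced in E. coli, Ni-coupled donor beads and streptavidin acceptor beads, excitation 680 nm with emission detected at 520–620 nm via singlet oxygen transfer.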 The format is biochemical. The following applies: AlphaScreen; biotin-tagged human Kras loaded with GDP, His-tagged human SOS1; read-out: KRAS G12D-SOS PPI IC50.
On to `CC[C@H](C)[C@@H]1NC(=O)[C@H](CC(C)C)N(C)C(=O)C[C@@H](C(=O)N2CCCCC2)N(C)C(=O)[C@H](C2CCCCC2)N(C)C(=O)C2(CCCC2)NC(=O)[C@H](CC=C2CCOCC2)N(C)C(=O)[C@H](CCc2ccc(C(F)(F)F)c(Cl)c2)NC(=O)CN(C)C(=O)[C@H](CC2CCCCC2)N(C)C(=O)CN(C)C(=O)CN(C)C1=O` [Compound 2053, (8S,11S,17S,26S,29S,33S,36S)-11-[2-[3-chloro-4-(trifluoromethyl)phenyl]ethyl]-36-cyclohexyl-17-(cyclohexylmethyl)-29-isobutyl-9,15,18,21,24,30,34,37-octamethyl-26-[(1S)-1-methylpropyl]-33-(piperidine-1-carbonyl)-8-(2-tetrahydropyran-4-ylideneethyl)-6,9,12,15,18,21,24,27,30,34,37-undecazaspiro[4.33]octatriacontane-7,10,13,16,19,22,25,28,31,35,38-undecone] ([NMeL]I[Sar][Sar][NMeCha][Sar][hPhe(3-Cl-4-CF3)][X41][Ac5c][NMeChg][NMeD]-Piperidide; lactam N-11), for which the IC50 turned out to be 10 nM.

As for `CC[C@H](C)[C@@H]1NC(=O)[C@H](CC(C)C)N(C)C(=O)C[C@@H](CC(C)C)N(C)C(=O)[C@H]([C@@H](C)CC)N(C)C(=O)C2(CCCC2)NC(=O)[C@@H]2CCCN2C(=O)[C@H](CCc2ccc(C(F)(F)F)c(Cl)c2)NC(=O)CN(C)C(=O)[C@H](Cc2ccc(C)cc2)N(C)C(=O)[C@@H]2CCN2C(=O)[C@H](C)N(C)C1=O` [Compound 1974] (cyclo([Ac5c][NMeI][X42][NMeL]I[NMeA][Aze][NMePhe(4-Me)][Sar][hPhe(3-Cl-4-CF3)]P)), the IC50 was determined as 45 nM.

With `CC[C@H](C)[C@@H]1NC(=O)[C@H](C)N(C)C(=O)C[C@@H](C)NC(=O)[C@H](CC(C)C)N(C)C(=O)C(C)(C)NC(=O)[C@H](CC(C)C)N(C)C(=O)[C@H](CCc2ccc(C(F)(F)F)cc2)NC(=O)CN(C)C(=O)[C@H](CC2CCCCC2)N(C)C(=O)CN(C)C(=O)CN(C)C1=O` [Compound 219] (cyclo([Aib][NMeL][d(β3hA)][NMeA]I[Sar][Sar][NMeCha][Sar][hPhe(4-CF3)][NMeL])), the IC50 stood at 73 nM.

Regarding `CC[C@H](C)[C@@H]1NC(=O)[C@H](C)N(C)C(=O)C[C@@H](C)N(C)C(=O)[C@H](C(C)C)N(C)C(=O)C(C)(C)N(C)C(=O)[C@@H]2CCCN2C(=O)[C@H](CCc2ccc(C(F)(F)F)c(Cl)c2)NC(=O)CN(C)C(=O)[C@H](CC2CCCCC2)N(C)C(=O)[C@@H]2CCN2C(=O)[C@H](C)N(C)C1=O` [Compound 341] (cyclo([Aze][NMeCha][Sar][hPhe(3-Cl-4-CF3)]P[NMeAib][NMeV][NMedβ3hAla][NMeA]I[NMeA])), the IC50 came out at 2.9 nM.

For the molecule `CCCCN1CC(=O)N(C)CC(=O)N(C)[C@@H](COCCC(C)C)C(=O)N(C)CC(=O)N[C@@H](CCc2ccc(C(F)(F)F)c(Cl)c2)C(=O)N(C)[C@@H](COCC(C)(C)O)C(=O)NC(C)(C)C(=O)N(C)[C@@H](C(C)C)C(=O)N[C@H](C)CC(=O)N(C)[C@@H](CC(C)C)C(=O)N[C@@H]([C@@H](C)CC)C1=O` [Compound 1505] (cyclo([Aib][NMeV][d(β3hA)][NMeL]I[NBuGly][Sar][NMeS](Isopentyl)[Sar][hPhe(3-Cl-4-CF3)][NMeS](CH2CMe2OH))), the IC50 was 220 nM.

Take `CC[C@H](C)[C@@H]1NC(=O)[C@H](CC(C)C)N(C)C(=O)C[C@@H](C(=O)N(C)C)N(C)C(=O)[C@H](C2CCCCC2)N(C)C(=O)C2(CCCC2)NC(=O)[C@@H]2CCCN2C(=O)[C@H](CCc2ccc(C(F)(F)F)c(Cl)c2)NC(=O)CN(C)C(=O)[C@H](CC2CCCCC2)N(C)C(=O)[C@@H]2CCN2C(=O)[C@H](C)N(C)C1=O` [Compound 1675] ([NMeL]I[NMeA][Aze][NMeCha][Sar][hPhe(3-Cl-4-CF3)]P[Ac5c][NMeChg][NMeD]-NMe2; lactam N-11): the IC50 worked out at 1.2 nM.

For `CC[C@H](C)[C@@H]1NC(=O)[C@H](CC(C)C)N(C)C(=O)C[C@@H](C)N(C)C(=O)[C@H](C2CCCCC2)N(C)C(=O)C2(CCC2)NC(=O)[C@@H]2CC(F)(F)CN2C(=O)[C@H](CCc2cc(F)c(C(F)(F)F)c(F)c2)NC(=O)CN(C)C(=O)[C@H](Cc2ccc(C(F)(F)F)cc2)N(C)C(=O)[C@@H]2CCN2C(=O)[C@H](C)N(C)C1=O` [Compound 34] (cyclo([Ac4c][NMeChg][NMedβ3hAla][NMeL]I[NMeA][Aze][NMePhe(4-CF3)][Sar][hPhe(3,5-F2-4-CF3)][Pro(4,4-F2)])), the half-inhibitory concentration (IC50) was found to be 74 nM.

In the case of `C=CCN1CC(=O)NC2(CCCC2)C(=O)N(C)[C@@H](C2CCCCC2)C(=O)N(C)[C@H](C(=O)N2CCCCC2)CC(=O)N(C)[C@@H](CC(C)C)C(=O)N[C@@H]([C@@H](C)CC)C(=O)N(C)CC(=O)N(C)CC(=O)N(C)[C@@H](CC2CCCCC2)C(=O)N(C)CC(=O)N[C@@H](CCc2ccc(C(F)(F)F)c(Cl)c2)C1=O` [Compound 899] ([NMeL]I[Sar][Sar][NMeCha][Sar][hPhe(3-Cl-4-CF3)][NAllylGly][Ac5c][NMeChg][NMeD]-Piperidide; lactam N-11 (inferred); C-terminus assumed), the IC50 stood at 1.9 nM.

On to `CC[C@H](C)[C@@H]1NC(=O)[C@H](C)N(C)C(=O)C[C@@H](C)NC(=O)[C@H](C2CCCC2)N(C)C(=O)C2(CCCC2)NC(=O)[C@@H]2CCCN2C(=O)[C@H](CCc2ccc(C(F)(F)F)c(Cl)c2)NC(=O)[C@@H](C)N(C)C(=O)[C@H](Cc2cccc(F)c2)N(C)C(=O)[C@@H]2CCN2C(=O)[C@H](C)N(C)C1=O` [Compound 795] (cyclo([Ac5c][NMeGly(cPent)][d(β3hA)][NMeA]I[NMeA][Aze][NMePhe(3-F)][dNMeA][hPhe(3-Cl-4-CF3)]P)), for which the IC50 amounted to 72 nM.

Regarding `CC[C@H](C)[C@@H]1NC(=O)[C@H](CC(C)C)N(C)C(=O)C[C@@H](C)NC(=O)[C@H](CC(C)C)N(C)C(=O)C(C)(C)NC(=O)[C@H](CC(C)C)N(C)C(=O)[C@H](CCc2ccc(C(F)(F)F)cc2)NC(=O)CN(C)C(=O)[C@H](CC2CCCCC2)N(C)C(=O)CN(C)C(=O)CN(C)C1=O` [Compound 839] (cyclo([Aib][NMeL][d(β3hA)][NMeL]I[Sar][Sar][NMeCha][Sar][hPhe(4-CF3)][NMeL])), the IC50 came to 220 nM.

Turning to `CC[C@H](C)[C@@H]1NC(=O)[C@H](CC2CCCCC2)N(C)C(=O)C[C@@H](C)NC(=O)[C@H](CC(C)C)N(C)C(=O)C(C)(C)NC(=O)[C@H](CC(C)C)N(C)C(=O)[C@H](CCc2ccc(C(F)(F)F)cc2)NC(=O)CN(C)C(=O)[C@H](Cc2ccc(Cl)cc2)N(C)C(=O)CN(C)C(=O)CN(C)C1=O` [Compound 615] (cyclo([Aib][NMeL][d(β3hA)][NMeCha]I[Sar][Sar][NMePhe(4-Cl)][Sar][hPhe(4-CF3)][NMeL])), the half-inhibitory concentration (IC50) is 220 nM.

On to `CC[C@H](C)[C@@H]1NC(=O)[C@H](C)N(C)C(=O)C[C@@H](C(=O)N2CCCCC2)N(C)C(=O)[C@H](C(C)C)N(C)C(=O)C2(CCCC2)NC(=O)[C@H](Cc2ccccc2Cl)N(CC)C(=O)[C@H](CCc2ccc(C(F)(F)F)c(Cl)c2)NC(=O)CN(C)C(=O)[C@H](Cc2ccc(C)cc2)N(C)C(=O)CN(C)C(=O)CN(C)C1=O` [Compound 2166] ([NMeA]I[Sar][Sar][NMePhe(4-Me)][Sar][hPhe(3-Cl-4-CF3)][NEtPhe(2-Cl)][Ac5c][NMeV][NMeD]-Piperidide; lactam N-11), for which the IC50 amounted to 330 nM.
